How the values were obtained:
Assay type in all cases: physicochemical
[1] = Test Example 6: photostability in container with shrinkable film containing an ultraviolet scattering agent; conditions: for Analogs (%): aqueous composition 0.4 g/100 mL as free form, pH 6.0, polypropylene container wound with shrinkable film containing titanium oxide (transmittance 300 to 335 nm: 0.3%)
Procedure: Stabilization of the aqueous composition containing ripasudil was attempted by storing the aqueous composition in a container containing an ultraviolet scattering agent, as in Test Example 5. Specifically, the test was performed as in Test Example 5, except that the below-described container including a shrinkable film containing an ultraviolet scattering agent was used instead of the container containing an ultraviolet absorber, and a white fluorescent lamp (one used in a hospital dispensary and the like) was used as the light source instead of the D65 fluorescent lamp. A white shrinkable film (heat-shrinkable film) (Iwata Label Co., Ltd.) into which 40 to 45 mass % of titanium oxide was mixed as an ultraviolet scattering agent was wound around a side surface of a general container for eye drops made of polypropylene not containing an ultraviolet absorber, an ultraviolet scattering agent, or the like, in accordance with a conventional method, and the resulting container was used. […] Since the shrinkable film was not transparent, the contents were not visible through the side surface of the container in this state (for example, the average value of transmittance of light in the visible light region (450 to 750 nm) was 1.1%). Thus, slits with about a width of 5 mm were provided in the lower half of the side surface of the container to make the amount of the contents visible (this portion was not able to block the rays). The contents were visible through the bottom surface of the container, since the shrinkable film was not wound around the bottom surface.

[2] = Test Example 7: Preservation Test No. 1, color difference (ΔYI) at 60° C.; conditions: for ΔYI: aqueous composition of Table 7 (phosphate, pH 6.7), 60° C. for 3 months; for Evaluation (ΔYI): aqueous composition of Table 7, 60° C. for 3 months
Procedure: An aqueous composition of the formulation shown in Table 7 was prepared in accordance with a conventional method, and then placed in a container made of polyethylene (PE), polypropylene (PP), or polyvinyl chloride (PVC) to produce a pharmaceutical preparation. Each of the resulting pharmaceutical preparations was preserved at 60° C. for 3 months, and a color difference (ΔYI) before and after the preservation was measured using a color difference meter (spectrophotometer, CM-700d: Konica Minolta Sensing, Inc.). A ΔYI value of 5 or more was rated as “b”, and a ΔYI value of less than 5 was rated as “a”. [table]

[3] = Test Example 5: photostability in plastic container containing an ultraviolet absorber; conditions: for Analogs (%): aqueous composition 0.4 g/100 mL as free form, pH 6.0, polypropylene container containing ultraviolet absorber (transmittance 300 to 335 nm: 7.2%)
Procedure: Based on the results obtained in Test Examples 3 and 4, stabilization of an aqueous composition containing ripasudil was attempted by storing the aqueous composition in a container containing an ultraviolet absorber.
Specifically, an aqueous composition containing, per 100 mL, 0.4896 g of ripasudil monohydrochloride dihydrate (0.4 g, as the free form of ripasudil), 0.4 g of anhydrous sodium dihydrogen phosphate, 2.136 g of glycerin, 0.002 g of benzalkonium chloride, an appropriate amount of sodium hydroxide (pH 6.0), and sterile purified water (balance) was prepared. This aqueous composition was then stored in the below-described container for eye drops made of polypropylene, which contained an ultraviolet absorber. The aqueous composition was then irradiated with 4000 lux of light to give a cumulative radiation dose of 1,200,000 lux.hr, at 25° C., with a D65 fluorescent lamp as the light source, using a photostability tester (LT-120A: Nagano Science Corporation).
The amount of ripasudil analogs was evaluated for the sample before and after exposure to light, as in Test Example 1.
A container for eye drops made of polypropylene into which a benzotriazole-based ultraviolet absorber was mixed was used.

[4] = Test Example 10: Preservation Test No. 4, precipitation of crystals at 0° C.; parameters: key to Presence or Absence of Precipitation of Crystals: the absence of precipitation of crystals was rated as “a”; the presence of precipitation of crystals was rated as “b”
Procedure: An aqueous composition of the formulation shown in Table 13 was prepared in accordance with a conventional method, and then placed in a container made of polyethylene terephthalate (PET) to produce a pharmaceutical preparation. The resulting pharmaceutical preparation was preserved at 0° C. for 21 days, and then visually evaluated for the presence or absence of precipitation of crystals. Note that the absence of precipitation of crystals was rated as “a”, and the presence of precipitation of crystals was rated as “b”. [table]

[5] = Test Example 8: Preservation Test No. 2, color difference (ΔYI) at 60° C.; conditions: for ΔYI: aqueous composition of Table 9 (boric acid, pH 6.7), 60° C. for 3 months; for Evaluation (ΔYI): aqueous composition of Table 9, 60° C. for 3 months
Procedure: An aqueous composition of the formulation shown in Table 9 was prepared in accordance with a conventional method, and then placed in a container made of polyethylene (PE) or polypropylene (PP) to produce a pharmaceutical preparation. Each of the resulting pharmaceutical preparations was preserved at 60° C. for 3 months, and a color difference (ΔYI) before and after the preservation was measured using a color difference meter (spectrophotometer, CM-700d: Konica Minolta Sensing, Inc.). A ΔYI value of 5 or more was rated as “b”, and a ΔYI value of less than 5 was rated as “a”. [table]

[6] = Test Example 9: Preservation Test No. 3, precipitation of crystals at 0° C.; parameters: key to Presence or Absence of Precipitation of Crystals: the absence of precipitation of crystals was rated as “a”; the presence of precipitation of crystals was rated as “b”; conditions: for Presence or Absence of Precipitation of Crystals: aqueous composition of Table 11 (phosphate, pH 6.7), 0° C. for 2 days; for precipitation of crystals: preserved at low temperature, in words
Procedure: An aqueous composition of the formulation shown in Table 11 was prepared in accordance with a conventional method, and then placed in a container made of polyethylene terephthalate (PET) or polyvinyl chloride (PVC) to produce a pharmaceutical preparation. Each of the resulting pharmaceutical preparations was preserved at 0° C. for 2 days, and then visually evaluated for the presence or absence of precipitation of crystals. Note that the absence of precipitation of crystals was rated as “a”, and the presence of precipitation of crystals was rated as “b”. [table]

C[C@H]1CNCCCN1S(=O)(=O)c1cccc2cncc(F)c12 [ripasudil, 4-fluoro-5-[[(2S)-2-methyl-1,4-diazepan-1-yl]sulfonyl]isoquinoline]
Analogs (%) ([1]; before exposure to light): 0.13% | Analogs (%) ([1]; white fluorescent lamp, 1,200,000 lux·hr): 0.28% | photostability of ripasudil in the aqueous composition ([1]; container with average transmittance at 300 to 335 nm of 0.3%, in words): improved | ΔYI ([2]; container PE): 4.07 | ΔYI ([2]; container PP): 4.42 | ΔYI ([2]; container PVC): 7.45 | Evaluation (ΔYI) ([2]; container PE): a (a ΔYI value of less than 5 was rated as “a”) | Evaluation (ΔYI) ([2]; container PP): a (a ΔYI value of less than 5 was rated as “a”) | Evaluation (ΔYI) ([2]; container PVC): b (A ΔYI value of 5 or more was rated as “b”) | Analogs (%) ([3]; D65 lamp, 25° C., 1,200,000 lux·hr): 0.55% | Analogs (%) ([3]; before exposure to light): 0.11% | photostability of ripasudil in the aqueous composition ([3]; container with average transmittance at 300 to 335 nm of 7.2%, in words): improved | Presence or Absence of Precipitation of Crystals ([4]; aqueous composition of Table 13 (boric acid, pH 6.7), 0° C. for 21 days, container PET): a | precipitation of crystals ([4]; changed formulation, preserved at low temperature, container made of PET, in words): no precipitation of crystals was observed | ΔYI ([5]; container PE): 4.15 | ΔYI ([5]; container PP): 4.64 | Evaluation (ΔYI) ([5]; container PE): a (a ΔYI value of less than 5 was rated as “a”) | Evaluation (ΔYI) ([5]; container PP): a (a ΔYI value of less than 5 was rated as “a”) | Presence or Absence of Precipitation of Crystals ([6]; container PET): a | Presence or Absence of Precipitation of Crystals ([6]; container PVC): b | precipitation of crystals ([6]; container made of PET): no precipitation of crystals was observed | precipitation of crystals ([6]; container made of PVC): precipitation of crystals was observed

Reference: US20240216272A1, “PHARMACEUTICAL PREPARATION” (KOWA COMPANY, LTD., priority 2014, published 2024)
